Laboratory results reported in patent US12582626B2, “Methods and compositions for treating cancer” (The Wistar Institute of Anatomy and Biology, priority 2016, dated 2026).

Legend:
activated CD8+ T cells = assay: In vitro stimulation of CD8+ T cells and drug treatments (flow cytometry, intracellular cytokine staining); assay type: cell-based, mouse
Description: Enriched CD8+ T cells were activated for 4 days in 6-well plates pre-coated with antibodies to CD3 (5 μg/ml) and CD28 (5 μg/mL) (BD Bioscience). For some samples, cells were transferred for the last 16 hours to a hypoxia chamber. To study the impact of hypoxia on relatively resting CD8+ T cells, enriched CD8+ T cells were stimulated for 48 hours under normoxia. Cells were then removed from the plates, washed and replated in fresh medium with 100 U/ml human IL-2 for 96 hours, followed by culture in normoxia or hypoxia with IL-2 for another 36 hours before analysis. Cells were cultured in Roswell Park Memorial Institute (RPMI) medium without Glu (Life Technologies) supplemented with Glu (10 mM) or Gal (10 mM), 10% dialyzed FBS (Life Technologies), 20 mM HEPES, 2 mM Glutamax, 1 mM sodium pyruvate, 0.05 mM 2-mercaptoethanol and 1% penicillin-streptomycin. Hypoxia experiments were performed in a Thermo Napco series 8000WJ CO2 incubator equipped with nitrogen tank for O2 replacement. O2 level was kept at 1% during CD8+ T cells hypoxia culture for time periods indicated in each assay. In all assays cell viability was assessed before staining. […] Drugs and corresponding vehicle controls were added as follows: 2-deoxy-D-glucose (2-DG, 2 mM, Sigma) or Fenofibrate (FF, 50 μM, Sigma) for the entire culture period; Etomoxir (Eto, 200 μM, Sigma) for the last 48 hours. DMSO concentrations were kept below 0.2% for all culture conditions.
CD8^+ T cells from spleens of naive C57Bl/6 mice were purified by negative selection using magnetic beads (MACS, STEMCELL Technologies). Enriched CD8^+ T cells were activated for 4 days in 6-well plates pre-coated with antibodies to CD3 (5 μg/ml) and CD28 (5 μg/mL) (BD Bioscience). For some samples, cells were transferred for the last 16 hours to a hypoxia chamber. To study the impact of hypoxia on resting CD8^+ T cells, purified enriched CD8^+ T cells were stimulated for 48 hours under normoxia. Cells were then washed off the plates and replated in fresh medium with 100 U/ml human IL-2 for 96 hours, followed by culture in normoxia or hypoxia with IL-2 for another 36 hours before analysis. Cells were cultured in Roswell Park Memorial Institute (RPMI) medium without Glu (Life Technologies) supplemented with Glu (10 mM) or Gal (10 mM), 10% dialyzed FBS (Life Technologies), 20 mM HEPES, 2 mM Glutamax, 1 mM sodium pyruvate, 0.05 mM 2-mercaptoethanol and 1% penicillin-streptomycin. Hypoxia experiments were performed in a Thermo Napco series 8000WJ CO2 incubator equipped with nitrogen tank for O2 replacement. O2 level was kept at 1% during CD8^+ T cells hypoxia culture for time periods indicated in each assay. Drugs and corresponding vehicle controls were added as follows: 2-deoxy-D-glucose (2-DG, 2 mM, Sigma) or Fenofibrate (FF, 50 μM, Sigma) for the entire culture period; Etomoxir (Eto, 200 μM, Sigma), Amidepsine A (AmA, 20 μM, Santa Cruz), or Orlistat (OS, 100 μM, Sigma) for the last 48 hours. DMSO concentrations were kept below 0.2% for all culture conditions.
For mitochondrial metabolic markers analysis, cells were stained with Mitosox Red (5 μM, MROS) and DioC6 (40 nM, MMP) (Life Technologies) at 37° C. for 30 minutes under either normoxia or hypoxia (for in vitro samples cultured prior to staining under hypoxia). For fatty acid uptake experiments, cells stimulated under different conditions in vitro or isolated from spleen and tumors of mice bearing 2 weeks or 1 month-old tumors were immediately incubated with 1 μM BODIPY FL C16 (Life tech) for 30 mins at 37° C. Cells were washed twice with cold PBS before surface staining. For Cpt1a staining, cells were stained for surface markers first followed by permeabilization with transcription factor buffer set (BD Pharmingen, San Diego, CA). Cells were stained with anti-Cpt1a antibody or mouse IgG2b isotype control antibody (abcam) at 5 μg/ml in 1× permwash for 45 mins at 4° C. […]

CD8+ T cells = assay: Extracellular flux analysis (OCR, ECAR) of stimulated CD8+ T cells; assay type: cell-based, mouse; settings: for Basal OCR: OS 100 μM or AmA 20 μM, Glu or Gal media, short-term hypoxia
Description: OCR and ECAR for CD8^+ T cells stimulated under different conditions were measured with XF24 and XF96 Extracellular Flux Analyzers (Seahorse Bioscience) following the manufacturer's instructions. Hypoxia samples were prepared in a hypoxia chamber under 1% O2. Dead cells were removed by dead cell removal kit using MACS and live cells were pre-incubated with 100 μM cobalt chloride before being removed from the hypoxia chamber and entered into the Seahorse analyzer. In experiments to determine the contribution of fatty acid oxidation (FAO) to OCR, 200 μM ETO was added 15 minutes before the Seahorse analysis. Briefly after repeated measures of basal respiration and lactate production, 1 μM OM was added to measure ATP leakage by OCR and glycolytic capacity by ECAR. 1.5 μM FCCP was then added to measure maximal respiration by OCR followed by addition of 100 nM Rotenone and 1 μM Antimycin A (AmA) to determine spare respiratory capacity by OCR and then 100 mM 2-DG to determine glycolytic reserve by ECAR.

[1] = tested on: vaccine-induced CD8+ T cells; assay: FF treatment of vaccinated donor mice, splenic CD8+ T cells analysed before transfer; assay type: in vivo, mouse; settings: samples incubated with Eto
Description: For in vivo treatment, fenofibrate (FF; at 100 mg/kg/day, Sigma) was first diluted in dimethylsulfoxide (DMSO) and then further diluted in PBS and given by oral gavage daily for 3 weeks. Control mice received diluent at the same volume. For adoptive transfer experiments, 1×10^7 in vitro activated CD8^+ T cells transduced with lentivectors or splenocytes from vaccinated mice treated with drugs and containing 5×10^4 Trp-1455 tetramer^+CD8^+ T cells per dose were injected intravenously into recipient mice. For FF/control treated splenocytes or wild type/PPAR-α KO splenocytes co-transfer experiments, splenocytes containing 10^5 Trp-1455 tetramer^+CD8^+ T cells from each group were mixed and transferred into CD90.1^+ recipient mice intravenously.
To assess how increased FA catabolism affects CD8+TIL functions, we vaccinated CD90.2+ mice congenic for CD45, and treated them for 3 weeks daily with FF (CD45.1 mice) or diluent (CD45.2 mice). Splenocytes from these mice were mixed at a 1:1 ratio of Trp-1-specific CD8+ T cells from the 2 donors and transferred into CD90.1+ recipient mice, which had been challenged with tumor cells and vaccinated 3 days later. Cells were transferred 2 days after vaccination (FIG. 6A).

O=CC[C@@H](O)[C@H](O)[C@H](O)CO [2-DG, 2-deoxy-D-glucose]
PD-1 expression (activated CD8+ T cells; 2-DG compared to cells grown with Glu): more
O2 consumption rate (OCR) (CD8+ T cells; Glu medium with 2-DG 2 mM): decreases
OCR/ECAR ratio (CD8+ T cells; Glu medium with 2-DG 2 mM): augments
extracellular acidification rate (ECAR) (CD8+ T cells; Glu medium with 2-DG 2 mM): declines

COc1cc(C)c(C(=O)Oc2cc(C)c(C(=O)Oc3cc(C)c(C(=O)NC(C)C(=O)O)c(O)c3)c(O)c2)c(OC)c1 (stereo not shown) [AmA, Amidepsine A]
functions of T cells (activated CD8+ T cells; Gal media and hypoxia): decrease functions
PD-1 expression (activated CD8+ T cells; under hypoxia, AmA, Gal medium): decreases
Basal OCR (CD8+ T cells): decreases

CCOC(=O)[C@@]1(CCCCCCOc2ccc(Cl)cc2)CO1 [Eto, etomoxir]
functions and polyfunctionality of CD8+ T cells (activated CD8+ T cells; cultured with limited access to Glu and O2): decreases
PD-1 expression (activated CD8+ T cells; under hypoxia, FF 50 μM or Eto 200 μM): decreases
OCR (CD8+ T cells; Eto 200 μM, CD8+ T cells stimulated in Glu or Gal media): decreases
FF-enhanced OCR of splenocytes [1]: blocked

CCCCCCCCCCC[C@@H](C[C@@H]1OC(=O)[C@H]1CCCCCC)OC(=O)[C@H](CC(C)C)NC=O [OS, Orlistat]
PD-1 expression (activated CD8+ T cells; under hypoxia, OS, regardless of other culture conditions): decreases
Basal OCR (CD8+ T cells): decreases
